Test system: Xanthomonas alfalfae
Test: Alamar Blue assay for antimicrobial activity (FIG. 11)
Type: cell-based
Conditions: metallic zinc concentration as low as 50 PPM, components at relevant concentrations
Source text: FIG. 11A, FIG. 11B, FIG. 11C and FIG. 11D show a series of images illustrating Alamar Blue assay in accordance with the embodiments. […] It is to be understood that this disclosure is not limited to the foregoing particular embodiments described, as such may, of course, vary. It is also to be understood that the terminology used herein is for the purpose of describing particular embodiments only, and is not intended to be limiting, since the scope of the present disclosure will be limited only by the appended claims.

Row | SMILES | antimicrobial effect against Xanthomonas alfalfae
1 | OO [hydrogen peroxide] | did not elicit similar effect
2 | [Zn+2] [divalent zinc ion] | did not elicit similar effect
3 | NC(N)=O [urea] | did not elicit similar effect

Reference: US20170303543A1, “AGRICHEMICAL COMPOSITIONS AND METHODS OF MAKING AND USING SAME” (priority 2014, published 2017)
